The results in this text go back to patent US20120184548A1, “CARBOXYLIC ACID ARYL AMIDES” (priority 2011, published 2012).

In one test the target is T1, Human DYRK1B (Homo sapiens, UniProt Q9Y463).
T1 construct: purchased Invitrogen PR8350B (former PV4649)
The test is described as follows: DYRK1B Kinase TR-FRET (IMAP-Tb) Assay. The format is biochemical. The settings on record: for inhibition at 10 µM: 10 μM test compound, reported where IC50 was not determined, read-out: Enzyme DYRK1B % inhibition at 10 μM test compound concentration; for IC50: TR-FRET, ATP 70 μM, 37° C. for 60 minutes, averages of multiple runs, read-out: Enzyme IC50 DYRK1B. An excerpt:
The kinase TR-FRET (IMAP-Tb) assay uses a fluorescence labeled substrate peptide in the kinase reaction. Upon phosphorylation by the kinase, phosphopeptide is produced, which will be detected by the binding solution provided in IMAP TR-FRET binding kit. After the completion of the kinase reaction, the reaction will be stopped by adding the binding solution containing terbium tracer. This tracer is immobilized on the surface of the IMAP beads, which also contain metal ions on the beads that bind to the phospho-groups of the products. Thus the phosphorylated product of the reaction can enter into close proximity to the tracer, producing resonance energy transfer. Due to the long lifetime of terbium (Tb) fluorescence the detection can be run in time resolved mode, which virtually eliminates fluorescence interference from assay components or compounds. […] IC50 is the amount of test compound that inhibits 50% of the activity of DYRK1B in this assay. […] 1. Human DYRK1B: from Invitrogen. Part # PR8350B (former PV4649) 2. Substrate Peptide: RRRFRPASPLRGPPK 3. IMAP TR-FRET IPP Explorer Kit: from Molecular Devices. Part # R8157 4. Kinase Assay Buffer (KAB): 10 mM HEPES pH 7.0, 50 mM NaCl, 5 mM MgCl2, 1 mM DTT, 1 mM NaVO4, 200 μg/mL BSA (0.02%) 5. Assay Plate: Remp polypropylene clear 384-well microplate. Cat#23490-102 6. Detection Plate: Costa black 384-well microplate. Cat #3710 Assay Procedure: This assay was performed as follows: 1. Transfer 1.5 μL of 20× compound solution to each well of an assay plate. 2. Add to each well 22.5 μL of KAB Buffer. 3. Add to each well 3 μL of the solution of DYRK1B and ATP. […] Add to each well 3 μL of the substrate peptide. […] Incubate the assay plates at 37° C. for 60 minutes. 6. Add 18 μL of Detection Solution (1:800 diluted Progress bead stock, 1:400 diluted Tb stock, 80% Buffer A, and 20% Buffer B) into each well of detection plates. 7. Transfer 6 μL of assay solution from the assay plate to the detection plate. 8. Shake detection plates for 30 minutes. 9. Read plates in Envision with wavelength set at excitation 340 nm for Tb, emission 490 nm, and […]. 10. Calculation: TR-FRET Signal=(Reading at […])×2000000

The target of another test is T2, Human DYRK1A (Homo sapiens, UniProt Q13627).
T2 construct: purchased Invitrogen PV3997
The test is described as follows: DYRK1A Kinase TR-FRET (IMAP-Tb) Assay. The format is biochemical. To be noted: for inhibition at 10 µM: 10 μM test compound, reported where IC50 was not determined, read-out: Enzyme DYRK1A % inhibition at 10 μM test compound concentration; for IC50: TR-FRET, ATP 70 μM, 37° C. for 60 minutes, averages of multiple runs, read-out: Enzyme IC50 DYRK1A. An excerpt: The kinase TR-FRET (IMAP-Tb) assay uses a fluorescence labeled substrate peptide in the kinase reaction. Upon phosphorylation by the kinase, phosphopeptide is produced, which will be detected by the binding solution provided in IMAP TR-FRET binding kit. After the completion of the kinase reaction, the reaction will be stopped by adding the binding solution containing terbium tracer. This tracer is immobilized on the surface of the IMAP beads, which also contain metal ions on the beads that bind to the phospho-groups of the products. Thus the phosphorylated product of the reaction can enter into close proximity to the tracer, producing resonance energy transfer. Due to the long lifetime of terbium (Tb) fluorescence the detection can be run in time resolved mode, which virtually eliminates fluorescence interference from assay components or compounds.
The TR-FRET signal measurement from this assay, given as an IC50 measurement, is a measure of a test compound's ability to interfere with the phosphorylation of the peptide substrate, that is it inhibits the phosphorylation of the substrate peptide by DYRK1A, and is thus a measure of the test compound's ability to inhibit the activity of DYRK1A.
1. Human DYRK1A: from Invitrogen. Part # PV3997
2. Substrate Peptide: […]
3. IMAP TR-FRET IPP Explorer Kit: from Molecular Devices. Part # R8157 4. Kinase Assay Buffer (KAB): 10 mM HEPES pH 7.0, 50 mM NaCl, 5 mM MgCl2, 1 mM DTT, 1 mM NaVO4, 200 μg/mL BSA (0.02%) 5. Assay Plate: Remp polypropylene clear 384-well microplate. […] Detection Plate: Costa black 384-well microplate. […] Transfer 1.5 μL of 20× compound solution to each well of an assay plate. 2. Add to each well 22.5 μL of KAB Buffer. 3. Add to each well 3 μL of the solution of DYRK1A and ATP. […] Add to each well 3 μL of the substrate peptide. The assay concentration is 1.0 μM 5. Incubate the assay plates at 37° C. for 60 minutes. 6. Add 18 μL of Detection Solution (1:800 diluted Progress bead stock, 1:400 diluted Tb stock, 80% Buffer A, and 20% Buffer B) into each well of detection plates. 7. Transfer 6 μL of assay solution from the assay plate to the detection plate. 8. Shake detection plates for 30 minutes. 9. Read plates in Envision with wavelength set at excitation 340 nm for Tb, emission 490 nm, and […].

T1 sequence (Q9Y463 whole entry): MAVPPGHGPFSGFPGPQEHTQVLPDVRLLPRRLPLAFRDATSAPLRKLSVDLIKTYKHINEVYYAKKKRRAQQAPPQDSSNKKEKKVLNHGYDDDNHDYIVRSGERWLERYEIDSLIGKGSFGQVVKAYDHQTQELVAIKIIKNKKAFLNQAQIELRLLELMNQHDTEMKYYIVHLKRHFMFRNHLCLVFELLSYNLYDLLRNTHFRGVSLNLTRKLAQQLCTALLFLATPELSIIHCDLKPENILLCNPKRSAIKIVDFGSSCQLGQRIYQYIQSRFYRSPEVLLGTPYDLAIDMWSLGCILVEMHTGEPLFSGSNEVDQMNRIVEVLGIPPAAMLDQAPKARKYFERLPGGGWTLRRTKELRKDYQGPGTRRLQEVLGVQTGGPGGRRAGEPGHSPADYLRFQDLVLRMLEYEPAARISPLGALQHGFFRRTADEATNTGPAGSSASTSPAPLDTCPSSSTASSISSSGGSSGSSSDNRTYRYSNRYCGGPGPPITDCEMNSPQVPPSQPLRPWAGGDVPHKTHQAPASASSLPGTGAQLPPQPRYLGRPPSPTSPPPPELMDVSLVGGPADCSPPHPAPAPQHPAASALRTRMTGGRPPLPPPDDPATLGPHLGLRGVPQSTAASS

In the case of `COc1cc2cc(C(=O)Nc3cc(C(=O)NC(CO)C(C)C)ccc3C)c(=O)[nH]c2cc1OC` (stereo not shown) [Example 33, 6,7-Dimethoxy-2-oxo-1,2-dihydro-quinoline-3-carboxylic acid [5-(1-hydroxymethyl-2-methyl-propylcarbamoyl)-2-methyl-phenyl]-amide], the inhibition at 10 µM at Human DYRK1B and at Human DYRK1A was 36% each time.
Take `COc1cc2cc(C(=O)Nc3ccncc3Cl)c(=O)[nH]c2cc1OC` [Example 36, 6,7-Dimethoxy-2-oxo-1,2-dihydro-quinoline-3-carboxylic acid (3-chloro-pyridin-4-yl)-amide]: the inhibition at 10 µM at Human DYRK1B is 28%. Also, the IC50 on Human DYRK1A amounted to 239 nM.
With `COc1cc2cc(C(=O)Nc3cc(C(=O)NCc4cccc(Cl)c4)ccc3C)c(=O)[nH]c2cc1OC` [Example 40, 6,7-Dimethoxy-2-oxo-1,2-dihydro-quinoline-3-carboxylic acid [5-(3-chloro-benzylcarbamoyl)-2-methyl-phenyl]-amide], at Human DYRK1B, the inhibition at 10 µM came to 34%. In addition, at Human DYRK1A, the IC50 worked out at 182 nM.
`COc1cc2cc(C(=O)Nc3cc(C(=O)NCC4CCCCC4)ccc3C)c(=O)[nH]c2cc1OC` [Example 41, 6,7-Dimethoxy-2-oxo-1,2-dihydro-quinoline-3-carboxylic acid [5-(cyclohexylmethyl-carbamoyl)-2-methyl-phenyl]-amide]: the IC50 on Human DYRK1B worked out at 2590 nM; on Human DYRK1A, 4590 nM.
Turning to `COc1cc2cc(C(=O)Nc3cc(-c4ncco4)ccc3C)c(=O)[nH]c2cc1OC` [Example 51, 6,7-Dimethoxy-2-oxo-1,2-dihydro-quinoline-3-carboxylic acid (2-methyl-5-oxazol-2-yl-phenyl)-amide], the inhibition at 10 µM at Human DYRK1B is 42%. Also, at Human DYRK1A, the half-inhibitory concentration (IC50) was found to be 592 nM.
As to `COc1cc2cc(C(=O)Nc3cc(C(=O)N[C@@H](CO)c4ccccc4)ccc3C)c(=O)[nH]c2cc1OC` [Example 56, (R)-N-(5-(2-Hydroxy-1-phenylethylcarbamoyl)-2-methylphenyl)-6,7-dimethoxy-2-oxo-1,2-dihydroquinoline-3-carboxamide], the IC50 on Human DYRK1B is more than 10000 nM. The inhibition at 10 µM at Human DYRK1A worked out at 31%.
Turning to `COc1cc2cc(C(=O)Nc3cc(C(=O)N[C@H](CO)CC(C)C)ccc3C)c(=O)[nH]c2cc1OC` [Example 65, (S)-N-(5-(1-Hydroxy-4-methylpentan-2-ylcarbamoyl)-2-methylphenyl)-6,7-dimethoxy-2-oxo-1,2-dihydroquinoline-3-carboxamide], the inhibition at 10 µM on Human DYRK1B worked out at 26%. The IC50 at Human DYRK1A is 4310 nM.
For `COc1cc2cc(C(=O)Nc3cc(C(=O)N[C@@H](CO)CC(C)C)ccc3C)c(=O)[nH]c2cc1OC` [Example 66, (R)-N-(5-(1-Hydroxy-4-methylpentan-2-ylcarbamoyl)-2-methylphenyl)-6,7-dimethoxy-2-oxo-1,2-dihydroquinoline-3-carboxamide] the same measures were 13% and more than 10000 nM.
With `COc1cc2[nH]c(=O)c(C(=O)Nc3cc(C(=O)NCc4cccc(Cl)c4)ccc3C)cc2cc1O` [Example 68, 6-Hydroxy-7-methoxy-2-oxo-1,2-dihydro-quinoline-3-carboxylic acid [5-(3-chloro-benzylcarbamoyl)-2-methyl-phenyl]-amide], the IC50 at Human DYRK1B was found to be 189 nM; on Human DYRK1A, 58 nM.
In the case of `COCCOCCOc1cc2cc(C(=O)Nc3cc(C(=O)NCc4cccc(Cl)c4)ccc3C)c(=O)[nH]c2cc1OC` [Example 70, 7-Methoxy-6-[2-(2-methoxy-ethoxy)-ethoxy]-2-oxo-1,2-dihydro-quinoline-3-carboxylic acid [5-(3-chloro-benzylcarbamoyl)-2-methyl-phenyl]-amide], the values for the IC50 at Human DYRK1B and at Human DYRK1A were 1690 nM and 67 nM, respectively.
On to `COC(=O)c1ccc(Cl)c(NC(=O)C2Cc3cc(OC)c(OC)cc3NC2=O)c1` (stereo not shown) [Example 71, 4-Chloro-3-[(6,7-dimethoxy-2-oxo-1,2,3,4-tetrahydro-quinoline-3-carbonyl)-amino]-benzoic acid methyl ester], for which the IC50 came out at 860 nM on Human DYRK1B and 690 nM at Human DYRK1A.
For `COC(=O)c1ccc(C)c(NC(=O)C2Cc3cc(OC)c(OC)cc3NC2=O)c1` (stereo not shown) [Example 72, 3-[(6,7-Dimethoxy-2-oxo-1,2,3,4-tetrahydro-quinoline-3-carbonyl)-amino]-4-methyl-benzoic acid methyl ester] the same measures were 1800 nM and 5590 nM.
On to `COc1cc2c(cc1OC)NC(=O)C(C(=O)Nc1cc(C(=O)NCc3ccccc3)ccc1Cl)C2` (stereo not shown) [Example 73, 6,7-Dimethoxy-2-oxo-1,2,3,4-tetrahydro-quinoline-3-carboxylic acid (5-benzylcarbamoyl-2-chloro-phenyl)-amide], for which the IC50 at Human DYRK1B was 2340 nM; on Human DYRK1A, 880 nM.
Take `COc1cc2c(cc1OC)NC(=O)C(C(=O)Nc1cc(C(=O)NCc3ccccc3)ccc1C)C2` (stereo not shown) [Example 74, 6,7-Dimethoxy-2-oxo-1,2,3,4-tetrahydro-quinoline-3-carboxylic acid (5-benzylcarbamoyl-2-methyl-phenyl)-amide]: the IC50 at Human DYRK1B was more than 10000 nM. Moreover, at Human DYRK1A, the inhibition at 10 µM is 30%.

Usually IC50 stands for the concentration needed to halve the response being measured.
